Measurements reported in patent US12157741B2, “Macrocyclic inhibitors of DYRK1A” (DANA-FARBER CANCER INSTITUTE, INC., priority 2018, dated 2024).
Where two headings read alike, the source gives them in different places.

Legend:
Type in all cases: binding
[1] = target: various enzymes (Homo sapiens, UniProt O15075); settings: compound 1 uM
Description: (§1) Ambit profiling was conducted in accordance with the manufacturer's instructions.

[2] = target: various enzymes (Homo sapiens, UniProt O43353); settings: compound 1 uM
Description: as §1

[3] = target: various enzymes (Homo sapiens, UniProt O95835); settings: compound 1 uM
Description: as §1

[4] = target: various enzymes (Homo sapiens, UniProt P00533, DEL746-750); settings: compound 1 uM
Description: as §1

[5] = target: various enzymes (Homo sapiens, UniProt P00533, L858R/T790M)
Description: as §1

[6] = target: various enzymes (Homo sapiens, UniProt P00533, T790M)
Description: as §1

[7] = target: various enzymes (Homo sapiens, UniProt P04049); settings: compound 1 uM
Description: as §1

[8] = target: various enzymes (Homo sapiens, UniProt P04629); settings: compound 1 uM
Description: as §1

[9] = target: various enzymes (Homo sapiens, UniProt P07947); settings: compound 1 uM
Description: as §1

[10] = target: various enzymes (Homo sapiens, UniProt P08581, Y1235D)
Description: as §1

[11] = target: various enzymes (Homo sapiens, UniProt P10721, D816V)
Description: as §1

[12] = target: various enzymes (Homo sapiens, UniProt P10721, V559D)
Description: as §1

[13] = target: various enzymes (Homo sapiens, UniProt P11802); settings: compound 1 uM
Chain of various enzymes (Homo sapiens, UniProt P11802) (P11802 whole entry): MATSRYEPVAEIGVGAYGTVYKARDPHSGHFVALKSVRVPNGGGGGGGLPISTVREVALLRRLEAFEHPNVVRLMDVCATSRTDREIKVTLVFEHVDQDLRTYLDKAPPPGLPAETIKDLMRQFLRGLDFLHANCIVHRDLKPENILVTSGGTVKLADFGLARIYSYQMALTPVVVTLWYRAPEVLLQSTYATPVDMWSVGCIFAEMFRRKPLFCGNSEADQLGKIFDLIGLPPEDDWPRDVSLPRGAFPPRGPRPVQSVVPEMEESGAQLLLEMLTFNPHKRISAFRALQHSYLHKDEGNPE
Description: as §1

[14] = target: various enzymes (Homo sapiens, UniProt P41240); settings: compound 1 uM
Chain of various enzymes (Homo sapiens, UniProt P41240) (P41240 whole entry): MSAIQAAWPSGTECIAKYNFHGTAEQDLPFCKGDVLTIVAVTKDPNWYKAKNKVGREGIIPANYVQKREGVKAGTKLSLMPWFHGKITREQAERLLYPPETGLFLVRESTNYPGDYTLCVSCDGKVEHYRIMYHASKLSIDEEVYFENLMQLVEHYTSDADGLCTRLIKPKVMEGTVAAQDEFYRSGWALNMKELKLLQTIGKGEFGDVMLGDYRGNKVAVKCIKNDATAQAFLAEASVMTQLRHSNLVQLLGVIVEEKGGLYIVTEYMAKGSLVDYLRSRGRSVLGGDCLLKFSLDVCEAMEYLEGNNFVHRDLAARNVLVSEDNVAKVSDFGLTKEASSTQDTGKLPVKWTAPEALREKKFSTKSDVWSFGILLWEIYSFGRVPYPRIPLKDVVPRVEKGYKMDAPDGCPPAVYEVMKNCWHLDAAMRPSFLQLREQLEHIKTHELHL
Description: as §1

[15] = target: various enzymes (Homo sapiens, UniProt P41743); settings: compound 1 uM
Chain of various enzymes (Homo sapiens, UniProt P41743) (P41743 whole entry): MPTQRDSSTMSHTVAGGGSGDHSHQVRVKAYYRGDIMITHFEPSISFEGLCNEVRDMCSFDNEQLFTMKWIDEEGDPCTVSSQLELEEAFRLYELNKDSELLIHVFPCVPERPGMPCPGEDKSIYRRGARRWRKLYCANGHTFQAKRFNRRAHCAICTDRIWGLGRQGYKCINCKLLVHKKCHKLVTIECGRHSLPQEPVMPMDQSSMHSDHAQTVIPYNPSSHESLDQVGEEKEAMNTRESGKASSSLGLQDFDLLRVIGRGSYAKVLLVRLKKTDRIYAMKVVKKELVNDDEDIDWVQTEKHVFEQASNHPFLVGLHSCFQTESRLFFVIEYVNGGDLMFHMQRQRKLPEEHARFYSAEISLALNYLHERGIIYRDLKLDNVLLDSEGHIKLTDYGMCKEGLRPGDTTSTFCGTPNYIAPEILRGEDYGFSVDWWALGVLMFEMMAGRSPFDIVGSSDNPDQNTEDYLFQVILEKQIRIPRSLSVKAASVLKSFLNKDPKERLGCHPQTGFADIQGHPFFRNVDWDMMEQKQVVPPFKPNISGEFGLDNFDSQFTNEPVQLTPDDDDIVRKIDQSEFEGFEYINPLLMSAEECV
Description: as §1

[16] = target: various enzymes (Homo sapiens, UniProt P45984); settings: compound 1 uM
Chain of various enzymes (Homo sapiens, UniProt P45984) (P45984 whole entry): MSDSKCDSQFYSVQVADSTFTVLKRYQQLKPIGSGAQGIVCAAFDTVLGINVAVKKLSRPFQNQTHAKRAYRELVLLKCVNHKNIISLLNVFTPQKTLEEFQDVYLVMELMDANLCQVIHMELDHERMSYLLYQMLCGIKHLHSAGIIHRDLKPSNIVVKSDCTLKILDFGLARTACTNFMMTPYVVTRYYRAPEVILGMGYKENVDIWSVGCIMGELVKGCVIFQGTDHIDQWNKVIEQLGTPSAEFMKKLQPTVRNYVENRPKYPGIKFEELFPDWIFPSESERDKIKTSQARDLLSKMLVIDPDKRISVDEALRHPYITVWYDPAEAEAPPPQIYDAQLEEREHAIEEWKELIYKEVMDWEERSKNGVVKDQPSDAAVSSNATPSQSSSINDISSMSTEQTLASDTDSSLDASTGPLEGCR
Description: as §1

[17] = target: various enzymes (Homo sapiens, UniProt P52333); settings: compound 1 uM
Description: as §1

[18] = target: various enzymes (Homo sapiens, UniProt P53350); settings: compound 1 uM
Chain of various enzymes (Homo sapiens, UniProt P53350) (P53350 whole entry): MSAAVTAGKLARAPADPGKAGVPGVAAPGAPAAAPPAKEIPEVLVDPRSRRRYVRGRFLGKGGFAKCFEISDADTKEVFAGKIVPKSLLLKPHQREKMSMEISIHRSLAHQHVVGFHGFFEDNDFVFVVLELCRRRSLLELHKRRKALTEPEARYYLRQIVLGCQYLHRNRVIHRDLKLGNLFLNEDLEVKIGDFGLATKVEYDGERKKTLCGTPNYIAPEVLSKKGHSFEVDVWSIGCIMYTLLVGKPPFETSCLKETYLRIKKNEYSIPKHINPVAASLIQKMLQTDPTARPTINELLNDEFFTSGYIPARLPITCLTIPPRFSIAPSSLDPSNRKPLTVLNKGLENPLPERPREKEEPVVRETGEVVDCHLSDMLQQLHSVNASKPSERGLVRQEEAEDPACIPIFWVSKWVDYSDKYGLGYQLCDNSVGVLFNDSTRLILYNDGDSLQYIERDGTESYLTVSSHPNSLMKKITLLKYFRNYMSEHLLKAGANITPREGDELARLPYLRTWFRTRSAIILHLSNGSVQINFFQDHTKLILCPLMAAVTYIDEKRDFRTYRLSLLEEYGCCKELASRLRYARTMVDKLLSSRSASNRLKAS
Description: as §1

[19] = target: various enzymes (Homo sapiens, UniProt P78368); settings: compound 1 uM
Chain of various enzymes (Homo sapiens, UniProt P78368) (P78368 whole entry): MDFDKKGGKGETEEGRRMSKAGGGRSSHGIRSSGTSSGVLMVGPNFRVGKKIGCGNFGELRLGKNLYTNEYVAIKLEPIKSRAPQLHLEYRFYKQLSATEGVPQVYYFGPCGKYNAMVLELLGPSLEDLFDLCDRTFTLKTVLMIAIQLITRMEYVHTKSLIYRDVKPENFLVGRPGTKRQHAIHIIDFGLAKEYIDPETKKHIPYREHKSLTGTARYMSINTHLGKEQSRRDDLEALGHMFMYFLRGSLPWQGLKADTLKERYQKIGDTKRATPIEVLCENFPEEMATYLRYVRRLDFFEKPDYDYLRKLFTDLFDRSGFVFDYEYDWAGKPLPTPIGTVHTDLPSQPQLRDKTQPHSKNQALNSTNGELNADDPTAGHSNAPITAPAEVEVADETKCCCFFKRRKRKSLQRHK
Description: as §1

[20] = target: various enzymes (Homo sapiens, UniProt Q00526); settings: compound 1 uM
Chain of various enzymes (Homo sapiens, UniProt Q00526) (Q00526 whole entry): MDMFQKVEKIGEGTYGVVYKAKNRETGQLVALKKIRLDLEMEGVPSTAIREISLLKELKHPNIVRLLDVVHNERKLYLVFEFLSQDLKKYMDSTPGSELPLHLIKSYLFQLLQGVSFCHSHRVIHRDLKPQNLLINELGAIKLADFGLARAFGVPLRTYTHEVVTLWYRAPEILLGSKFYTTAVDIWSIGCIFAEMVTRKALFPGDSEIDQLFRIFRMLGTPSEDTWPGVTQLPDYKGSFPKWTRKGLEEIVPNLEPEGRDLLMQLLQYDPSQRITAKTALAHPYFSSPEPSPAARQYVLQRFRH
Description: as §1

[21] = target: various enzymes (Homo sapiens, UniProt Q07912); settings: compound 1 uM
Description: as §1

[22] = target: various enzymes (Homo sapiens, UniProt Q13131); settings: compound 1 uM
Description: as §1

[23] = target: various enzymes (Homo sapiens, UniProt Q13976); settings: compound 1 uM
Description: as §1

[24] = target: various enzymes (Homo sapiens, UniProt Q15418); settings: compound 1 uM
Chain of various enzymes (Homo sapiens, UniProt Q15418) (Q15418 whole entry): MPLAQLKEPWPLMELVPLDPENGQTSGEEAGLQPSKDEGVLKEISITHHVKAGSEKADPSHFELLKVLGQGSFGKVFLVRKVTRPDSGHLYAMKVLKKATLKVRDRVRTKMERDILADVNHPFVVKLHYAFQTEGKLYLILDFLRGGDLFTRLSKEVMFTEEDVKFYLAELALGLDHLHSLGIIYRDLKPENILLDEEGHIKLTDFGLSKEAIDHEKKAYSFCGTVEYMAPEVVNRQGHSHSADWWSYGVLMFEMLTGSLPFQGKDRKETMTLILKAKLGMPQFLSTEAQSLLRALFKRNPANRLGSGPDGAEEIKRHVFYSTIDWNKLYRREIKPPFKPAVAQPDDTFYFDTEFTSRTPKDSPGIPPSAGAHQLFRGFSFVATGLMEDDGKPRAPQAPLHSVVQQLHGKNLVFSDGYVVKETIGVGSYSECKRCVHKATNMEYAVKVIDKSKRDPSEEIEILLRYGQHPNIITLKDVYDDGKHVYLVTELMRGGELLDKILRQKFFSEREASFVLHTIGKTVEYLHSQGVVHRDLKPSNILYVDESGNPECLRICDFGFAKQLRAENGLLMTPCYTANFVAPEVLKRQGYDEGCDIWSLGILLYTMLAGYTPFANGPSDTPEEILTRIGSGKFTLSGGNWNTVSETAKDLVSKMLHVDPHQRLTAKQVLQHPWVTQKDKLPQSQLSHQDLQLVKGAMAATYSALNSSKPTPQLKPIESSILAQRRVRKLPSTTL
Description: as §1

[25] = target: various enzymes (Homo sapiens, UniProt Q16513); settings: compound 1 uM
Description: as §1

[26] = target: various enzymes (Homo sapiens, UniProt Q16539); settings: compound 1 uM
Chain of various enzymes (Homo sapiens, UniProt Q16539) (Q16539 whole entry): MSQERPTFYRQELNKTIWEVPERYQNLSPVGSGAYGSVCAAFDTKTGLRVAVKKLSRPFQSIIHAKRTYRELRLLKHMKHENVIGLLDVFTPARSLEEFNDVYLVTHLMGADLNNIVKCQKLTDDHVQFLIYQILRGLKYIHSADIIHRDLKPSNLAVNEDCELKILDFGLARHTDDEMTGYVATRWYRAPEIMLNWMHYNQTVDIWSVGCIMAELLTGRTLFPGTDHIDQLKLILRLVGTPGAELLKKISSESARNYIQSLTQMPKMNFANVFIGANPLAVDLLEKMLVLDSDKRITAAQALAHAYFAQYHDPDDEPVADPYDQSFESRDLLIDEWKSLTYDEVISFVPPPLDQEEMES
Description: as §1

[27] = target: various enzymes (Homo sapiens, UniProt Q16832); settings: compound 1 uM
Description: as §1

[28] = target: various enzymes (Homo sapiens, UniProt Q5S007, G2019S)
Description: as §1

[29] = target: various enzymes (Homo sapiens, UniProt Q6XUX3); settings: compound 1 uM
Description: as §1

[30] = target: various enzymes (Homo sapiens, UniProt Q7KZI7); settings: compound 1 uM
Description: as §1

[31] = target: various enzymes (Homo sapiens, UniProt Q7L7X3); settings: compound 1 uM
Description: as §1

[32] = target: various enzymes (Homo sapiens, UniProt Q86UE8); settings: compound 1 uM
Description: as §1

[33] = target: various enzymes (Homo sapiens, UniProt Q8TD08); settings: compound 1 uM
Description: as §1

[34] = target: various enzymes (Homo sapiens, UniProt Q8WTQ7); settings: compound 1 uM
Description: as §1

[35] = target: various enzymes (Homo sapiens, UniProt Q96Q40); settings: compound 1 uM
Description: as §1

[36] = target: various enzymes (Homo sapiens, UniProt Q9BXA7); settings: compound 1 uM
Description: as §1

[37] = target: various enzymes (Homo sapiens, UniProt Q9H1R3); settings: compound 1 uM
Description: as §1

[38] = target: various enzymes (Homo sapiens, UniProt Q9H2X6); settings: compound 1 uM
Description: as §1

[39] = target: various enzymes (Homo sapiens, UniProt Q9UIK4); settings: compound 1 uM
Description: as §1

[40] = target: various enzymes (Homo sapiens, UniProt Q9UK32); settings: compound 1 uM
Chain of various enzymes (Homo sapiens, UniProt Q9UK32) (Q9UK32 whole entry): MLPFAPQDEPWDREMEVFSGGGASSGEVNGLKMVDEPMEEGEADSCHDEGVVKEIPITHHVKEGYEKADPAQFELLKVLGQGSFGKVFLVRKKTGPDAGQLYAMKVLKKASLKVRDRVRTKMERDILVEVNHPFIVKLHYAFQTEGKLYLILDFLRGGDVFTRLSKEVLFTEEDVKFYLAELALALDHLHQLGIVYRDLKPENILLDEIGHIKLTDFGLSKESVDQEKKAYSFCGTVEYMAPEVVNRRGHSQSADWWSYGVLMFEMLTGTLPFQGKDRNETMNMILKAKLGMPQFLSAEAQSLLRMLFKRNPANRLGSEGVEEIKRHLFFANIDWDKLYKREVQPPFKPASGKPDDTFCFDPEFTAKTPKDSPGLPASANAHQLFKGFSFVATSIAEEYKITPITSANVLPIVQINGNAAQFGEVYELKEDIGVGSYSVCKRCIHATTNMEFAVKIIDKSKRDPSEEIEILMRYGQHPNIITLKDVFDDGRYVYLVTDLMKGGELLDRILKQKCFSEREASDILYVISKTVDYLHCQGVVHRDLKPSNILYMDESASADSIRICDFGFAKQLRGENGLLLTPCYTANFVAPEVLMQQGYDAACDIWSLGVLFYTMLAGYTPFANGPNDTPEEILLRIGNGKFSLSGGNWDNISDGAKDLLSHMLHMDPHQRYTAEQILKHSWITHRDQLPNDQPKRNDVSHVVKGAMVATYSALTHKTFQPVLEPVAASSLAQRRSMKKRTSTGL
Description: as §1

[41] = target: various enzymes (Homo sapiens, UniProt Q9Y2K2); settings: compound 1 uM
Description: as §1

With `CC(C)N1Cc2nn(C)cc2-c2cnc3[nH]cc(c3c2)-c2cn(nc2C(F)(F)F)CCCC1=O` [Compound 45, (Z)-5-isopropyl-31-methyl-13-(trifluoromethyl)-11H,21H,31H-5-aza-2(3,5)-pyrrolo[2,3-b]pyridina-1(4,1),3(4,3)-dipyrazolacyclononaphan-6-one] the “Ambit profiling: DCAMKL1” value [1] was 80, the “Ambit profiling: RIPK2” value [2] was 12 and the “Ambit profiling: LATS1” value [3] was 100. The “Ambit profiling: EGFR(E746-A750del)” value [4] was 6.4, the “Ambit profiling: EGFR(L858R, T790M)” value ([5]; compound 1 uM) was 27 and the “Ambit profiling: EGFR(T790M)” value ([6]; compound 1 uM) was 65. The “Ambit profiling: RAF1” value [7] was 100, the “Ambit profiling: TRKA” value [8] was 0 and the “Ambit profiling: YES” value [9] was 56. The “Ambit profiling: MET(Y1235D)” value ([10]; compound 1 uM) was 4.8, the “Ambit profiling: KIT(D816V)” value ([11]; compound 1 uM) was 4.2 and the “Ambit profiling: KIT(V559D)” value ([12]; compound 1 uM) was 3.2. The “Ambit profiling: CDK4” value [13] was 100, the “Ambit profiling: CDK4-cyclinD1” value [13] was 53 and the “Ambit profiling: CDK4-cyclinD3” value [13] was 100. The “Ambit profiling: CSK” value [14] was 3.9, the “Ambit profiling: PRKCI” value [15] was 9.1 and the “Ambit profiling: JNK2” value [16] was 21. For the same compound, the “Ambit profiling: JAK3(JH1domain-catalytic)” value [17] was 0, the “Ambit profiling: PLK1” value [18] was 93 and the “Ambit profiling: CSNK1G2” value [19] was 100. The “Ambit profiling: CDK3” value [20] was 33, the “Ambit profiling: TNK2” value [21] was 11 and the “Ambit profiling: AMPK-alpha1” value [22] was 50. The “Ambit profiling: PRKG1” value [23] was 100, the “Ambit profiling: RSK1(Kin.Dom.1-N-terminal)” value [24] was 17 and the “Ambit profiling: RSK1(Kin.Dom.2-C-terminal)” value [24] was 85. For the same compound, the “Ambit profiling: PKN2” value [25] was 100, the “Ambit profiling: p38-alpha” value [26] was 86 and the “Ambit profiling: DDR2” value [27] was 13. The “Ambit profiling: LRRK2(G2019S)” value ([28]; compound 1 uM) was 53, the “Ambit profiling: RIPK5” value [29] was 27 and the “Ambit profiling: MARK2” value [30] was 48. For the same compound, the “Ambit profiling: TAOK1” value [31] was 8.8, the “Ambit profiling: TLK2” value [32] was 86 and the “Ambit profiling: ERK8” value [33] was 6.1. The “Ambit profiling: GRK7” value [34] was 28, the “Ambit profiling: PFTAIRE2” value [35] was 39 and the “Ambit profiling: TSSK1B” value [36] was 83. For the same compound, the “Ambit profiling: MYLK2” value [37] was 29, the “Ambit profiling: HIPK2” value [38] was 6 and the “Ambit profiling: DAPK2” value [39] was 100. For the same compound, the “Ambit profiling: RSK4(Kin.Dom.1-N-terminal)” value [40] was 2.6, the “Ambit profiling: RSK4(Kin.Dom.2-C-terminal)” value [40] was 95 and the “Ambit profiling: QSK” value [41] was 32.

In the case of `COc1c2c(nn1C)CN(C(C)C)C(=O)CCCn1cc(c(C(F)(F)F)n1)-c1c[nH]c3ncc-2cc13` [Compound 50, (Z)-5-isopropyl-35-methoxy-31-methyl-13-(trifluoromethyl)-11H,21H,31H-5-aza-2(3,5)-pyrrolo[2,3-b]pyridina-1(4,1),3(4,3)-dipyrazolacyclononaphan-6-one], the “Ambit profiling: DCAMKL1” value [1] is reported as 54, the “Ambit profiling: RIPK2” value [2] is reported as 11 and the “Ambit profiling: LATS1” value [3] is reported as 72. For the same compound, the “Ambit profiling: EGFR(E746-A750del)” value [4] was 5.9, the “Ambit profiling: EGFR(L858R, T790M)” value [5] was 19 and the “Ambit profiling: EGFR(T790M)” value [6] was 32. The “Ambit profiling: RAF1” value [7] was 93, the “Ambit profiling: TBKA” value [8] was 0 and the “Ambit profiling: YES” value [9] was 21. The “Ambit profiling: MET(Y1235D)” value [10] was 1.4, the “Ambit profiling: KIT(D816V)” value [11] was 0.35 and the “Ambit profiling: KIT(V559D)” value [12] was 0.95. For the same compound, the “Ambit profiling: CDK4” value [13] was 88, the “Ambit profiling: CDK4-cyclinD1” value [13] was 76 and the “Ambit profiling: CDK4-cyclinD3” value [13] was 81. For the same compound, the “Ambit profiling: CSK” value [14] was 4.7, the “Ambit profiling: PRKCI” value [15] was 42 and the “Ambit profiling: JNK2” value [16] was 7.5. The “Ambit profiling: JAK3(JH1domain-catalytic)” value [17] was 0, the “Ambit profiling: PLK1” value [18] was 100 and the “Ambit profiling: CSNK1G2” value [19] was 83. The “Ambit profiling: CDK3” value [20] was 78, the “Ambit profiling: TNK2” value [21] was 1.9 and the “Ambit profiling: AMPK-alpha1” value [22] was 90. For the same compound, the “Ambit profiling: PRKG1” value [23] was 100, the “Ambit profiling: RSK1(Kin.Dom.1-N-terminal)” value [24] was 3.8 and the “Ambit profiling: RSK1(Kin.Dom.2-C-terminal)” value [24] was 81. For the same compound, the “Ambit profiling: PKN2” value [25] was 100, the “Ambit profiling: p38-alpha” value [26] was 81 and the “Ambit profiling: DDR2” value [27] was 32. The “Ambit profiling: LRRK2(G2019S)” value [28] was 27, the “Ambit profiling: RIPK5” value [29] was 95 and the “Ambit profiling: MARK2” value [30] was 100. For the same compound, the “Ambit profiling: TAOK1” value [31] was 82, the “Ambit profiling: TLK2” value [32] was 91 and the “Ambit profiling: ERK8” value [33] was 18. The “Ambit profiling: GRK7” value [34] was 9.7, the “Ambit profiling: PFTAIRE2” value [35] was 60 and the “Ambit profiling: TSSK1B” value [36] was 43. For the same compound, the “Ambit profiling: MYLK2” value [37] was 39, the “Ambit profiling: HIPK2” value [38] was 13 and the “Ambit profiling: DAPK2” value [39] was 67. The “Ambit profiling: RSK4(Kin.Dom.1-N-terminal)” value [40] was 2.3, the “Ambit profiling: RSK4(Kin.Dom.2-C-terminal)” value [40] was 74 and the “Ambit profiling: QSK” value [41] was 73.
